# Test results as given in patent US20080194567A1, “Combination Treatment for Enhancing Diuresis” (priority 2005, published 2008).
# Assays:
# Assay type in all cases: in vivo, human
# [1] = Experiment 1: case report, levosimendan infusion added to diuretics in a person with congestive heart failure; conditions: for daily urine volume: 850-1850 ml before start
# Excerpt: Person was admitted to hospital due to congestive heart failure. In cardiac echocardiography they had ejection fraction below 30%, moderate regurgitation of mitral valve and dilative cardiomyopathy. According to coronary angiography invasive procedures such as angioplasty or coronary by-pass surgery were not possible. During the first four days at hospital they received diuretics (furosemide and spironolactone) as well as lisinopril, bisoprolol, antibiotics and allopurinol without any positive response. Their dyspnea worsened and peripheral oedema increased. Levosimendan infusion was added with the dose of 0.05 microg/kg/min and was increased to 0.1 microg/kg/min after two hours, the infusion lasted 24 hours, no bolus infusion was used due to low blood pressure. During the next day patient told that they felt better and dyspnea and periphera oedema decreased. […] The daily urine volumes varied between 850 and 1850 ml before the start of levosimendan, and increased up to 6350 ml on the day they received levosimendan, and were 3800 ml on the day after levosimendan infusion, after that they went down to normal.
# [2] = Experiment 3: case report, levosimendan infusion added to diuretics in a person with dilating cardiomyopathy
# Procedure: Person was admitted to hospital due to worsened dyspnea. They suffered from idiopathic dilating cardiomyopathy and their left ventricular ejection fraction was 26%. They were treated with diuretics (furosemide and spironolactone) as well as perindopril, bisoprolol and digitalis without positive response for one week. Levosimendan infusion of 0.05 microg/kg/min was added. During the next 24 hours they urinated 3500 ml and during the next five days their weight decreased from 66.5 kg to 62.5 kg, although it had not changed at all before the infusion of levosimendan.
# [3] = Experiment 2: case report, levosimendan infusion added to vasodilators and diuretics in a person with dyspnea and lung oedema
# Procedure: Person was admitted to hospital due to severely worsened dyspnea. They suffered from coronary artery disease with no possibilities for re-vascularisation. They had ejection fraction below 35%, markedly elevated end-diastolic pressure and moderate mitral regurgitation. […] They were treated with positive pressure ventilation, vasodilators and diuretics for three days without positive response. Levosimendan fusion with a bolus and continuous infusion rate up to 0.2 microg/kg/min was added. The infusion lasted 24 hours. Before the infusion their daily urinary volumes varied between 2150 and 2730 ml. On the day levosimendan was started their urinary volume was 2650 and increased to 3855, 2890 and 2790 ml during the next consecutive days, and their fluid balance was 8500 ml negative during the four next days after the infusion of levosimendan.
smiles,measurement,setting,value
"C[C@@H]1CC(=O)NN=C1c1ccc(NN=C(C#N)C#N)cc1 [levosimendan, (−)-enantiomer of [[4-(1,4,5,6-tetrahydro-4-methyl-6-oxo-3-pyridazinyl)phenyl]hydrazono]propanedinitrile]",urinary volumes (in words),[1]; after the levosimendan infusion was added to diuretics,increased markedly
same,dyspnea and peripheral oedema,[1]; during the next day after the levosimendan infusion was added,decreased
same,daily urine volume,[1]; on the day after levosimendan infusion,3800 mL
same,daily urine volume,"[1]; on the day they received levosimendan (0.05 then 0.1 microg/kg/min, 24 h infusion) on top of furosemide and spironolactone",6350 mL
same,body weight,"[2]; after the next five days, decreased from 66.5 kg, no change before the infusion",62.5 kg
same,urine volume,[2]; during the next 24 hours after levosimendan 0.05 microg/kg/min was added to furosemide and spironolactone,3500 mL
same,fluid balance (negative),[3]; during the four next days after the infusion of levosimendan,8500 mL
same,daily urinary volume,"[3]; first consecutive day after levosimendan start, 2150-2730 ml before infusion",3855 mL
same,daily urinary volume,"[3]; on the day levosimendan was started (bolus plus infusion up to 0.2 microg/kg/min, 24 h) on top of diuretics, 2150-2730 ml before infusion",2650 mL
same,daily urinary volume,[3]; second consecutive day after levosimendan start,2890 mL
same,daily urinary volume,[3]; third consecutive day after levosimendan start,2790 mL
